One experiment addresses T1, cPLA2 (Homo sapiens, UniProt P47712).
T1 sequence (P47712 1-749): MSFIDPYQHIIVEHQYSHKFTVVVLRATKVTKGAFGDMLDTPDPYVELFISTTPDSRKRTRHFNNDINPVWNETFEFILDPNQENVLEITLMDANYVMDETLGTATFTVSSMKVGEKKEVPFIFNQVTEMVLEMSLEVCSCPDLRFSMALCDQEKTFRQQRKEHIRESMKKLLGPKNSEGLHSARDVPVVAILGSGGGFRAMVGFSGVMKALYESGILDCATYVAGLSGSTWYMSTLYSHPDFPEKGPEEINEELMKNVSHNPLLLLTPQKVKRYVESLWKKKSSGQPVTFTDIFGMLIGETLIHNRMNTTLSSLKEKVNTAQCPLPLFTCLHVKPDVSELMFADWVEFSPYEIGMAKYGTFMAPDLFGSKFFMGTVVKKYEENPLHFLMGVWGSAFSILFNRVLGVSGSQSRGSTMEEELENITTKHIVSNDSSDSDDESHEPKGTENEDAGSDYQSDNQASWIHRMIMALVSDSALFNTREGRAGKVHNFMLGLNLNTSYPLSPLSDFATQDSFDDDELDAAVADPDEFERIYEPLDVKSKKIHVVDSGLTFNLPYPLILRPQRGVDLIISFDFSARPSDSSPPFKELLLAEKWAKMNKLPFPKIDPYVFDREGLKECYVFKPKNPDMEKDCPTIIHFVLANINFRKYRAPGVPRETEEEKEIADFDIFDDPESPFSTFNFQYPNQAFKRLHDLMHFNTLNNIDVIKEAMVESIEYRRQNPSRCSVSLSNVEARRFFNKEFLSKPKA
Put plainly: cPLA2 Inhibitory activity (release of radiolabelled fatty acid from liposomes). Format: biochemical. The settings on record: 50 mM HEPES pH 7.4, 1 mM CaCl2, 2.5 μM radio-labeled phosphatidylcholine, 15 min at 37° C; read-out: cPLA2 Inhibition Activity IC50. Here is the method:
Experiment 1 cPLA2 Inhibitory activity
The compounds of the present invention was tested for the cPLA2 inhibitory activity by a method known in a literature (R. M. Kramer, E. F. Roberts, J. Manetta and J. E. Putnam, J. Biol. Chem., 268(8), 5268-5272 ([…])), as outlined below.
As a substrate, liposomes which contain 1-palmitoyl-2-[^14 C]-arachidonoyl-sn-glycero-3-phosphocholine and sn-1,2-dioleoylglycerol at the ratio of 2:1 and have treated ultrasonically were used. The substrate was added to a 50 mM HEPES buffer (pH 7.4) (200 μl) containing 1 mM CaCl2, 2 mM dithiothreitol, 150 mM NaCl, 0.1 mg/ml BSA so as to make the concentration of radio-labeled phosphatidylcholine 2.5 μM. To the solution was added a compound of the present invention in DMSO (10 μl) to obtain reaction solutions each containing the test compound at 250 μM, 50 μM, 10 μm, 2 μM, and 0.4 μM. The reaction was allowed to start by adding an enzyme (cPLA2) (4 ng) and continued for 15 min at 37° C.
The amount of fatty acids released by the reaction was measured on a liquid scintillation counter. Control was obtained by conducting the experiment in the same manner except that a compound of the present invention was not added. The inhibitory activity was expressed as percent (%) to the control value, which was used for the calculation of the concentration required for 50% inhibition (IC50, μM).

Experiment [1] has as its system Prostaglandin E2 production in human fibroblasts. As to the kind of experiment: Inhibition of Production of Prostaglandin E2 in Human Fibroblasts (IL-1 stimulated). It is filed as cell-based. The note with it: Fibroblast, stimulation with IL-1, read-out: Inhibitory activity Against the Production of Prostaglandin E2 in Human Fibroblasts IC50. On the procedure:
Experiment 2 Inhibition of Production of Prostaglandin E2 in Human Fibroblasts
From this viewpoint, the compounds of the present invention were tested for the effect on the production of prostaglandin E2 by human fibroblasts under the stimulation with IL-1 according to the method of J. M. Dayer et al (CACHECTIN/TUMOR NECROSIS FACTOR STIMULATES COLLAGENASE AND PROSTAGLANDIN E2 PRODUCTION BY HUMAN SYNOVIAL CELLS AND DERMAL FIBROBLASTS; J. M. Dayer, B. Beutlerm and A. Cerami, J. Exp. Med., 162,2163-2168, 1985).

The structures appear in SMILES notation.

The IC50 is the concentration needed to halve the response being measured.

For the compound `O=C1NC(=S)SC1=Cc1ccc(NC(=O)[C@@H]2C[C@H](SCc3ccccc3)CN2C(=O)c2ccncc2)cc1` [Compound A-24], the IC50 on cPLA2 was determined as 9.2 µM; in experiment [1], 4.9 µM.
As to `O=C1NC(=O)/C(=C/c2ccc(C(=O)NC[C@@H]3C[C@H](OC(c4ccccc4)c4ccccc4)CN3C(=O)c3ccc(CN4CCCC4=O)cc3)cc2)S1` [Compound H-10], the IC50 at cPLA2 turned out to be 10 µM; in experiment [1] it was 2.4 µM.
On the same counts, the results for `COC(=O)c1cc(C=C2SC(=O)NC2=O)cc(NC(=O)C2CC(OC(c3ccccc3)c3ccccc3)CN2C(=O)c2ccccc2)c1` (stereo not shown) [Compound C-4] are 3.2 µM and 2 µM.
For `O=C1NC(=O)C(=Cc2ccc(NC(=O)[C@@H]3C[C@H](SC(c4ccccc4)c4ccccc4)CN3C(=O)c3ccccc3)cc2)S1` [Compound A-12], the results for the IC50 (at cPLA2; in experiment [1]) were 1.3 µM and 1.6 µM, respectively.
The like results for `CC(C)(C)c1ccc(S(=O)(=O)N2C[C@@H](SCc3ccccc3)C[C@H]2C(=O)Nc2ccc(/C=C3\SC(=S)NC3=O)cc2)cc1` [Compound A-39] were, in that order, 6.2 µM and 6 µM.
The like results for `O=C1NC(=O)/C(=C/c2ccc(C=CC[C@@H]3C[C@H](SC(c4ccccc4)(c4ccccc4)c4ccccc4)CN3C(=O)CCc3ccccc3)cc2)S1` [Compound E-2] were, in that order, 0.46 µM and 6 µM.
The like results for `N#CCCCOc1ccc(CS[C@H]2C[C@@H](C(=O)Nc3ccc(/C=C4\SC(=S)NC4=O)cc3)N(S(=O)(=O)Cc3ccc(Br)cc3)C2)cc1` [Compound A-56] were, in that order, 1.9 µM and 0.93 µM.
Regarding `CC(=O)Nc1c(Cl)cc(S(=O)(=O)N2C[C@@H](SCc3ccccc3)C[C@H]2C(=O)Nc2ccc(/C=C3\SC(=S)NC3=O)cc2)cc1Cl` [Compound A-37], the IC50 at cPLA2 was 1.6 µM; in experiment [1], 6.9 µM.
On to `O=C1NC(=O)C(=Cc2ccc(NC(=O)[C@@H]3C[C@H](SCc4ccc(C(F)(F)F)cc4C(F)(F)F)CN3C(=O)c3ccccc3)cc2)S1` [Compound A-8], for which the IC50 on cPLA2 was determined as 4.8 µM; in experiment [1] it was 2.5 µM.
Take `O=C1NC(=O)/C(=C/c2ccc(C(=O)NC[C@@H]3C[C@H](OCc4ccc(F)cc4F)CN3C(=O)CCCCCCC3=CC(=O)c4ccccc4C3=O)cc2)S1` [Compound H-18]: the results for the IC50 (on cPLA2; in experiment [1]) were 11 µM and 1.5 µM, respectively.
Regarding `O=C1NC(=O)C(=Cc2ccc(NC(=O)[C@@H]3C[C@H](SCc4ccc(C(F)(F)F)cc4)CN3C(=O)c3ccccc3)cc2)S1` [Compound A-7], the IC50 on cPLA2 was 5.3 µM; in experiment [1], 4.5 µM.
Turning to `CC(C)S[C@H]1C[C@@H](C(=O)Nc2ccc(C=C3SC(=S)NC3=O)cc2)N(C(=O)Cc2ccc(Br)cc2)C1` [Compound A-27], the values for the IC50 (at cPLA2; in experiment [1]) were 5.1 µM and 2.6 µM, respectively.
The like results for `CC(C)=CCCC(C)=CCS[C@H]1C[C@@H](C(=O)Nc2ccc(C=C3SC(=O)NC3=O)cc2)N(C(=O)c2ccccc2)C1` [Compound A-11] were, in that order, 4.7 µM and 8.5 µM.
The like results for `CC(=O)Oc1ccc(O)cc1CCCCCCC(=O)N1C[C@@H](OC(c2ccccc2)c2ccccc2)C[C@H]1CNC(=O)c1ccc(/C=C2\SC(=O)NC2=O)cc1` [Compound H-16] were, in that order, 4.3 µM and 1.9 µM.
On the same counts, the results for `O=C1NC(=O)/C(=C/c2ccc(C(=O)NC[C@@H]3C[C@H](OCc4ccc(F)cc4F)CN3C(=O)c3ccc(Cn4sccc4=O)cc3)cc2)S1` [Compound H-8] are 3.2 µM and 9.9 µM.
Turning to `O=C1NC(=O)C(=C(CO)c2ccc(NC(=O)[C@@H]3C[C@H](SCc4ccccc4)CN3S(=O)(=O)c3ccc(-c4ccccc4)cc3)cc2)S1` [Compound D-2], the IC50 on cPLA2 was 7 µM; in experiment [1], 5.7 µM.
The like results for `O=C1NC(=S)SC1=Cc1ccc(NC(=O)[C@@H]2C[C@H](SCc3ccccc3)CN2C(=S)Nc2ccccc2)cc1` [Compound A-29] were, in that order, 5.9 µM and 1.2 µM.

Values taken from US5955616A, “Pyrrolidine derivatives having phospholipase A2 inhibitory activity” (Shionogi & Co., Ltd., priority 1995, dated 1999).
